The source made the active and inactive calls.
Experiments:
[1] = target: Serine/threonine-protein phosphatase PP1-alpha catalytic subunit (Homo sapiens, UniProt P62136); assay: inhibition of protein phosphatase 1 activity – biochemical, fluorescence, dose response (AID 2394)
SUMO-activating enzyme = SUMO-activating enzyme (Homo sapiens, UniProt Q9UBT2); assay: blockers of SAE1/SAE2–UBC9 SUMO transfer – biochemical, HTRF, uHTS, primary screen (AID 2006); format: protein-complex assay
HEK293 = assay: optical interference in Abeta FP readout, dose response, artefact control for IDE activator project, biochemical, fluorescence polarization (AID 588442); format: functional, cell-based; conditions: Homo sapiens
[2] = inhibition of ARNT PAS-B/TACC3 complex formation – biochemical, AlphaScreen, cherry-picked samples, confirmation (AID 651703); format: functional, Homo sapiens;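 also: His-tagged ARNT PAS-B domain paired with GST-TACC3 E629A dimer coactivator fragment; potency of inhibitors that break up the complex and lower AlphaScreen signal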
[3] = target: T1, Dual specificity protein phosphatase 6 (Rattus norvegicus, UniProt Q64346); format: functional;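 also: confirmatory in vitro dose-response testing of MKP-3 inhibition; recombinant His-tagged MKP-3 made in E. coli BL21 with OMFP substrate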
T1 sequence (Q64346 whole entry): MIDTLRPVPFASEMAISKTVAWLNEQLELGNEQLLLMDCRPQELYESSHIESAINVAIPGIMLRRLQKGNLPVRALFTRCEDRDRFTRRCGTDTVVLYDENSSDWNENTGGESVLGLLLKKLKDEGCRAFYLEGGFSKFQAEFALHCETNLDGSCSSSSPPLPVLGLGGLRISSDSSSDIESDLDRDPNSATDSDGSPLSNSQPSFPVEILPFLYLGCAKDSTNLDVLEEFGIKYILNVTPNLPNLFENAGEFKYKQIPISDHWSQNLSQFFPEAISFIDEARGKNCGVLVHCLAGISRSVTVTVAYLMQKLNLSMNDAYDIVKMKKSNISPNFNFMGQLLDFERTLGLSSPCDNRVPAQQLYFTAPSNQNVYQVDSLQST

[4] = target: T2, Small ubiquitin-related modifier 1 (Homo sapiens, UniProt P63165); assay: SUMO1 protein-protein binding blockers, potency – biochemical, FRET, dose response (AID 624383); format: functional; conditions: read-out: IC50_Mean
T2 sequence (P63165 whole entry): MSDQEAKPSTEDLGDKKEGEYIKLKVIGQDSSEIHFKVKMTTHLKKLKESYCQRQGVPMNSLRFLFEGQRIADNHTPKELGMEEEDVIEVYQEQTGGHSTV

[5] = target: T2, Small ubiquitin-related modifier 1; assay: SUMO1 protein interaction blockers, potency – biochemical, fluorescence polarization, uHTS hits, dose response (AID 624382); format: functional; conditions: read-out: IC50_Mean
[6] = target: 72 kDa type IV collagenase (Homo sapiens, UniProt P08253); assay: Dose Response validation of uHTS RPN11 inhibitor hits using a MMP-2 Fluorescence assay.; format: functional
72 kDa type IV collagenase, sequence (P08253 whole entry): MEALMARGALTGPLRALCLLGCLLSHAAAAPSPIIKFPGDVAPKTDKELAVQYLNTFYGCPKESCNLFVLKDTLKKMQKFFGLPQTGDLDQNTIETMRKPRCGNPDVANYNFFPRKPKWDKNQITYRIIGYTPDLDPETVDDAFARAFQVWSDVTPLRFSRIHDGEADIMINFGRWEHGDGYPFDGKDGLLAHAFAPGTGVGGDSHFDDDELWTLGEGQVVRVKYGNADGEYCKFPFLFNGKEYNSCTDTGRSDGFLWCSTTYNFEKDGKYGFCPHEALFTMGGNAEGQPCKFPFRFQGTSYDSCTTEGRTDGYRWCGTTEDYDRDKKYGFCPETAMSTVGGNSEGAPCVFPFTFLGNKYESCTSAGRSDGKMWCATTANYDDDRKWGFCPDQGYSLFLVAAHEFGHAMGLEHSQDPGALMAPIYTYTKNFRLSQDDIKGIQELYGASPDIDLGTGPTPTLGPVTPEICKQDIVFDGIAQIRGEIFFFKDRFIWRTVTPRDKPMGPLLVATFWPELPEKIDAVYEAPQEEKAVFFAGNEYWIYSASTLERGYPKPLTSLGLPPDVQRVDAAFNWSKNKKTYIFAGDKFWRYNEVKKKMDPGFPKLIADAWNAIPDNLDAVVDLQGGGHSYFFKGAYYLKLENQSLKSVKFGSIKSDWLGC

[7] = target: T3, Tyrosine-protein phosphatase non-receptor type 7 (Homo sapiens, UniProt P35236); assay: HTS HePTP Fluorescent Assay using OMFP substrate for In Vitro dose response studies. [Related pubchem assays (depositor defined):AID1059, AID1077, AID1784, AID2068, AID2085, AID435032, AID521]; format: functional
T3 sequence (P35236 whole entry): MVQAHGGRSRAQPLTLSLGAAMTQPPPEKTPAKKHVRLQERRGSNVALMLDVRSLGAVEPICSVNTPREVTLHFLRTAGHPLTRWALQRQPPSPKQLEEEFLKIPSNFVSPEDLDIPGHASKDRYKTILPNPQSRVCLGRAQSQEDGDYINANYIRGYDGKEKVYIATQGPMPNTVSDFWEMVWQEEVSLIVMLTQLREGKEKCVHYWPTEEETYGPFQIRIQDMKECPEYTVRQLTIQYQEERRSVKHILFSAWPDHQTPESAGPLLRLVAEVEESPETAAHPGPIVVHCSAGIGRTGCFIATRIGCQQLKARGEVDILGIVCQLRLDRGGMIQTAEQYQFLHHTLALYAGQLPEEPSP

[8] = target: T4, Dual specificity protein phosphatase 3 (Homo sapiens, UniProt P51452); assay: VHR1 phosphatase inhibitors, biochemical (AID 1878)
T4 sequence (P51452 whole entry): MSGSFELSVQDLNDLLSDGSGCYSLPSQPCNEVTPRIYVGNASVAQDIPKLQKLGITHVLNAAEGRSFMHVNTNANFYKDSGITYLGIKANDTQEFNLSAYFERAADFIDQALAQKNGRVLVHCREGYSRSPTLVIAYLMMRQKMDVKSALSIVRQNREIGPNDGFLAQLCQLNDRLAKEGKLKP

[9] = target: T5, Tyrosine-protein phosphatase non-receptor type 22 (Homo sapiens, UniProt Q9Y2R2); assay: PTPN22 lymphoid phosphatase activity blockers – biochemical, fluorescence intensity, uHTS (AID 1779)
T5 sequence (Q9Y2R2 whole entry): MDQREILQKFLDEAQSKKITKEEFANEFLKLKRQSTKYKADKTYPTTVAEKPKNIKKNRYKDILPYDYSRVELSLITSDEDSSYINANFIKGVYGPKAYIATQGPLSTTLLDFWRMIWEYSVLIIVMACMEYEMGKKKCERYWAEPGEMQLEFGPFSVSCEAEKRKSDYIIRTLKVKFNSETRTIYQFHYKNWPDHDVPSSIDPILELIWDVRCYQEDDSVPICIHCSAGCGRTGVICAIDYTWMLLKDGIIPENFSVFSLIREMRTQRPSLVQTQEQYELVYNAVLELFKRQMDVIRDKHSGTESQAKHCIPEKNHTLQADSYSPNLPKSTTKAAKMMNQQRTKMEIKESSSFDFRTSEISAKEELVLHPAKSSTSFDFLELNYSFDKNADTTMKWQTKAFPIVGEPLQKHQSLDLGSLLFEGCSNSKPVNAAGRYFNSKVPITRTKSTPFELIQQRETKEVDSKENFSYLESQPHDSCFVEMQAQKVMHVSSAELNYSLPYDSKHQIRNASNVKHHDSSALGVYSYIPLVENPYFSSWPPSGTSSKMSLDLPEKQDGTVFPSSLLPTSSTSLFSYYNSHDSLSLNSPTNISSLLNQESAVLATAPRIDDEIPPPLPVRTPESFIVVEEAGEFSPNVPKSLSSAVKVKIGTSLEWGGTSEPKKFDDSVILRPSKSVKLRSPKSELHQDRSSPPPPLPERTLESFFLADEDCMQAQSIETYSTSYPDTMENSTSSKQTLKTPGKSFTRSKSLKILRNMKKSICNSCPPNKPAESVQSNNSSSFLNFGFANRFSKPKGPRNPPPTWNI

[10] = target: T3, Tyrosine-protein phosphatase non-receptor type 7; assay: redox-active compounds inhibiting HePTP phosphatase – biochemical, fluorescence, mechanism study (AID 2068); format: functional
[11] = target: T5, Tyrosine-protein phosphatase non-receptor type 22; format: functional
[12] = target: T4, Dual specificity protein phosphatase 3; assay: SAR VHR1 absorbance Assay for In Vitro dose response studies. [Related pubchem assays (depositor defined):AID1654, AID1661, AID1878, AID1992, AID2004]
[13] = target: 26S proteasome non-ATPase regulatory subunit 14 (Homo sapiens, UniProt O00487); assay: inhibition of proteasome subunit RPN11 – biochemical, fluorescence polarization, uHTS hits, confirmation (AID 602368); format: functional
26S proteasome non-ATPase regulatory subunit 14, sequence (O00487 whole entry): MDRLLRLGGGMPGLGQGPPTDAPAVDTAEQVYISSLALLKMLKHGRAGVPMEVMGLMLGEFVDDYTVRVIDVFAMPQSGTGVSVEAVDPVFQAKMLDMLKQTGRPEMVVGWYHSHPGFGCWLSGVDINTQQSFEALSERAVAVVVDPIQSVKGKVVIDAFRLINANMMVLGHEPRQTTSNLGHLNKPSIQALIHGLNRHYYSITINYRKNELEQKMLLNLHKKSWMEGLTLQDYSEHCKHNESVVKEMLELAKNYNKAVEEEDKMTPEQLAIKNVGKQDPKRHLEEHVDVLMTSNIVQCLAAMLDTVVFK

[14] = target: T5, Tyrosine-protein phosphatase non-receptor type 22; assay: LYP1 Fluorescent Assay using OMFP substrate for In Vitro dose response studies. [Related pubchem assays (depositor defined):AID1779, AID1784, AID435024]
[15] = target: T4, Dual specificity protein phosphatase 3; assay: VHR phosphatase inhibition, dose response, selectivity assay for STEP inhibitor project, biochemical (AID 602374); format: functional; conditions: read-out: IC50_Mean

SUMO-activating enzyme, sequence (Q9UBE0 whole entry): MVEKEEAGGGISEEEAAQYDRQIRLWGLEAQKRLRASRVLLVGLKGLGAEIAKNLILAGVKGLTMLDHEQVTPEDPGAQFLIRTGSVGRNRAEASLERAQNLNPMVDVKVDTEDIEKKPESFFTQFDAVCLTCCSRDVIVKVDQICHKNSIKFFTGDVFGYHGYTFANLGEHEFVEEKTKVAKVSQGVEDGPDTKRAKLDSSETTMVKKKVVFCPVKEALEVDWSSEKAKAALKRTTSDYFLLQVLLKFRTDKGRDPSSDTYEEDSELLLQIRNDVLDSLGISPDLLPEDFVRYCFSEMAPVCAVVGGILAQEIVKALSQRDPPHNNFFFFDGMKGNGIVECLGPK
SUMO-activating enzyme, sequence (Q9UBT2 whole entry): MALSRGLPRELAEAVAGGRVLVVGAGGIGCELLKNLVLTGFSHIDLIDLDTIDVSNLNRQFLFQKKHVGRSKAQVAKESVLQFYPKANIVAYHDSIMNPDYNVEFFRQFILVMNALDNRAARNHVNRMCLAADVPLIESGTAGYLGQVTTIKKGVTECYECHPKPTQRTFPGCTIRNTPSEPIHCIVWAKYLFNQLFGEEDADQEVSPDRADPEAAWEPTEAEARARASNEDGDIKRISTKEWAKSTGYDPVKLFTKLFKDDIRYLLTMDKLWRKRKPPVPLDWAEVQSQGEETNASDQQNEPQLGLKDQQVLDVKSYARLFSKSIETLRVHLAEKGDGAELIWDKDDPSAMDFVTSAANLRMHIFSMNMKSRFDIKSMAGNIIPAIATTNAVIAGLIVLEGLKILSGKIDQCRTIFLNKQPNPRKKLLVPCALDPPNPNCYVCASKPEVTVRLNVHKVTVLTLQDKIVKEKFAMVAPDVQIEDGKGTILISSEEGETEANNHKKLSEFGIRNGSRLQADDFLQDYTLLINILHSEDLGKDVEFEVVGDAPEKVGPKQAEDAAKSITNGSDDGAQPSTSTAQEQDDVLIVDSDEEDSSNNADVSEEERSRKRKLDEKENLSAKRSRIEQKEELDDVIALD
Serine/threonine-protein phosphatase PP1-alpha catalytic subunit, sequence (P62136 whole entry): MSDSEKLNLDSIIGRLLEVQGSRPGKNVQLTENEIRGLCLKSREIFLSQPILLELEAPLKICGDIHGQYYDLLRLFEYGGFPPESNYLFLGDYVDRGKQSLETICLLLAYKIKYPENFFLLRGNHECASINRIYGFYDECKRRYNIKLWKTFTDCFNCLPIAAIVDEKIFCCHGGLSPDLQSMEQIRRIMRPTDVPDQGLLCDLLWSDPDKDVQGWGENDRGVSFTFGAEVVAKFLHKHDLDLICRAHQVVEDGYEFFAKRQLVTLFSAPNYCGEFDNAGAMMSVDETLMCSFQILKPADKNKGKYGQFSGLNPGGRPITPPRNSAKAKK

**Q.** For C=CCn1c(NC(=O)c2ccccc2Cl)c(C#N)c2nc3ccccc3nc21, which IC50 [1] is on record?
**A.** Its IC50 is 43.6 µM (not active).

**Q.** And the IC50 (SUMO-activating enzyme)?
**A.** Its IC50 is 2.63 µM (active).

**Q.** For O=c1oc2c(O)cccc2cc1-c1nc2ccccc2[nH]1, which EC50 (HEK293) is on record?
**A.** Its EC50 is > 54.7 µM (inactive).

**Q.** Which AC50 [2] does the source give for CCOC(=O)c1ccc(Nc2cc3ccccc3c(O)n2)cc1 here?
**A.** The AC50 was 84.2 µM (active).

**Q.** What does the source list for CCOC(=O)c1sc2nc3c(SCC(=O)O)cc(C(=O)c4ccccc4O)cn3c(=O)c2c1C?
**A.** IC50 [3]: 57.3 µM (active); IC50 [4]: 6.2 µM (active); IC50 [5]: > 66.6 µM (inactive); IC50 [6]: 0.821 µM (active); IC50 [7]: > 99 µM (inactive); IC50 [8]: 3.69 µM (active); IC50 [9]: > 99 µM (inactive); IC50 [10]: 0.105 µM (active); IC50 [11]: < 1.24 µM (active); IC50 [12]: 1.24 µM (active); IC50 [13]: 6.79 µM (active); IC50 [14]: > 99 µM (inactive); IC50 [15]: 0.549 µM (active)
